The values that follow come from ChEMBL document CHEMBL1909046, “DrugMatrix in vitro pharmacology data”.

Series [1] deals with Platelet-activating factor receptor (Homo sapiens, UniProt P25105). Kind of series: biochemical. The format is tissue-based. Particulars: platelet.
For the next series, the target named is T1, D(4) dopamine receptor (Homo sapiens, UniProt P21917).
T1 sequence (P21917 whole entry): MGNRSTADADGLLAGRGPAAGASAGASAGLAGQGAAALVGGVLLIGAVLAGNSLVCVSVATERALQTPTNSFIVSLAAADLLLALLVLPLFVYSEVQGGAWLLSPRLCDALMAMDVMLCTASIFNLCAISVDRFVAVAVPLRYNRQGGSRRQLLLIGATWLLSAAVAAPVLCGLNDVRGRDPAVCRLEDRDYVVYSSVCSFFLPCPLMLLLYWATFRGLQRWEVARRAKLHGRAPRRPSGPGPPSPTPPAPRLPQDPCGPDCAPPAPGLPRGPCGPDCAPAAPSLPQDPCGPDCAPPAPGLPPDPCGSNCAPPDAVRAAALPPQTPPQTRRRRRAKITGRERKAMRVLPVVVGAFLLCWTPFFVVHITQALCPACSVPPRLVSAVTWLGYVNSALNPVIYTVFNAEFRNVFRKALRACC
The experiment in a line: DRUGMATRIX: Dopamine D4.2 radioligand binding (ligand: [3H] Spiperone). The format is cell membranes, CHO-K1, Membrane. Particulars: cho-k1; Not Active = under 50% inhibition at 10 µM.

Series [2] deals with C-C chemokine receptor type 5 (Homo sapiens, UniProt P51681). The format is cell membranes, Membrane. Particulars: hek293.
A short description of series [3]: DRUGMATRIX: GABAA, Muscimol, Central radioligand binding (ligand: [3H] Muscimol). The format is cell membranes, Rattus norvegicus, Wistar, Brain, Membrane. Particulars: Not Active = under 50% inhibition at 10 µM.
Series [4] addresses T2, Cysteinyl leukotriene receptor 1 (Homo sapiens, UniProt Q9Y271).
T2 sequence (Q9Y271 whole entry): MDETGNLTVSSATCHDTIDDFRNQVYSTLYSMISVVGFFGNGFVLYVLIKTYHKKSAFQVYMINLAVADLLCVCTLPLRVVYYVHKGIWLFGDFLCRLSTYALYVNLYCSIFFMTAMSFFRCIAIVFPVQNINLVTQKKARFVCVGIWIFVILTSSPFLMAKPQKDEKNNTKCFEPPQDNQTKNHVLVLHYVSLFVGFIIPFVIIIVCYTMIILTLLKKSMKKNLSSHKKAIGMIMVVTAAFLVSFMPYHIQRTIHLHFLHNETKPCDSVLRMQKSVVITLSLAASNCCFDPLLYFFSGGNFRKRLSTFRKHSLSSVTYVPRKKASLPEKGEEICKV
The format is cell membranes, CHO-K1, Membrane. Particulars: cho-k1.

Series [5] has as its target Mitogen-activated protein kinase 3 (Homo sapiens, UniProt P27361). Kind of series: DRUGMATRIX: Protein Serine/Threonine Kinase, ERK1 enzyme inhibition (substrate: Myelin Basic Protein). Also on record: species or system Escherichia coli. Particulars: Not Active = under 50% inhibition at 10 µM.
Another series addresses Nitric oxide synthase 1 (Rattus norvegicus, UniProt P29476). The format is tissue-based, Cerebellum.
A short description of series [6]: DRUGMATRIX: Imidazoline I2, Central radioligand binding (ligand: [3H] Idazoxan). The format is cell membranes, Rattus norvegicus, Wistar, Cerebral cortex, Membrane. Particulars: Not Active = under 50% inhibition at 10 µM.
Another series addresses Vasopressin V1a receptor (Homo sapiens, UniProt P37288). The format is cell membranes, Membrane. Particulars: hek293.
Series [7] deals with T3, Type-2 angiotensin II receptor (Homo sapiens, UniProt P50052).
T3 sequence (P50052 whole entry): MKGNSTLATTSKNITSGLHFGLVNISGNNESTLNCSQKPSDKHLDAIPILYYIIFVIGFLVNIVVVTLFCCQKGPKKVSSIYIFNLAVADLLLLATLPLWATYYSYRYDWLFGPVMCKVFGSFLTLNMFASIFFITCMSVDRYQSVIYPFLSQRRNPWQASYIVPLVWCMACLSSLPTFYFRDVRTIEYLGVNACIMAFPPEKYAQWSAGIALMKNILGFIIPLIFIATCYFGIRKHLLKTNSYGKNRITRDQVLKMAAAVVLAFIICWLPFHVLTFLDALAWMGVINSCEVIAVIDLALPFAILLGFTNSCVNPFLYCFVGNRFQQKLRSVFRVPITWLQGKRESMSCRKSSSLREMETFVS
The format is cell-based. Particulars: cho-k1.

Another series has as its target T4, Adenosine receptor A3 (Homo sapiens, UniProt P0DMS8).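 Note: radioligand binding assay with AB-MECA serving as the labeled ligand; in other assays of this panel Not Active means under 50% inhibition at 10 µM.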
T4 sequence (P0DMS8 whole entry): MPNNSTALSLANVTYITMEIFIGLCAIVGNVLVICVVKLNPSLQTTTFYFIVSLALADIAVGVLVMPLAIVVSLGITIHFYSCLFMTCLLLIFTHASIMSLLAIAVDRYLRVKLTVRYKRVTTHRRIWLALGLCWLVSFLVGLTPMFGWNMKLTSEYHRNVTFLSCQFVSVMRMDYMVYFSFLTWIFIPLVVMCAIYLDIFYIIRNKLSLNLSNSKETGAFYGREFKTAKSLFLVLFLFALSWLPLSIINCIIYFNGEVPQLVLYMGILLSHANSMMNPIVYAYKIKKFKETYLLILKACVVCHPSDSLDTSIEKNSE
The format is cell membranes, CHO-K1, Membrane.

The target in the next series is Histamine H2 receptor (Homo sapiens, UniProt P25021). The format is cell membranes, CHO-K1, Membrane. Particulars: cho-k1. Note: in other assays of this panel Not Active means under 50% inhibition at 10 µM.
The next series addresses Cannabinoid receptor 1 (Homo sapiens, UniProt P21554). The format is cell membranes, Membrane. Particulars: chem-1.
Series [8] has as its target Vascular endothelial growth factor receptor 1 (Homo sapiens, UniProt P17948). The format is cell-based. Particulars: huvec. Note: in other assays of this panel Not Active means under 50% inhibition at 10 µM.
Series [9] in a line: DRUGMATRIX: Sodium/nucleoside co-transporter radioligand binding (ligand: nitrobenzylthioinosine). The format is cell membranes, Cavia porcellus, Dunkin-Hartley, Cerebral cortex, Membrane. Particulars: Not Active = under 50% inhibition at 10 µM.
Series [10] is described as follows: DRUGMATRIX: ATPase, Na+/K+ enzyme inhibition (substrate: ATP). The format is tissue-based, Sus scrofa, Heart. Particulars: Not Active = under 50% inhibition at 10 µM.
In a further series the target is T5, Substance-K receptor (Homo sapiens, UniProt P21452). Note: in other assays of this panel Not Active means under 50% inhibition at 10 µM.
T5 sequence (P21452 whole entry): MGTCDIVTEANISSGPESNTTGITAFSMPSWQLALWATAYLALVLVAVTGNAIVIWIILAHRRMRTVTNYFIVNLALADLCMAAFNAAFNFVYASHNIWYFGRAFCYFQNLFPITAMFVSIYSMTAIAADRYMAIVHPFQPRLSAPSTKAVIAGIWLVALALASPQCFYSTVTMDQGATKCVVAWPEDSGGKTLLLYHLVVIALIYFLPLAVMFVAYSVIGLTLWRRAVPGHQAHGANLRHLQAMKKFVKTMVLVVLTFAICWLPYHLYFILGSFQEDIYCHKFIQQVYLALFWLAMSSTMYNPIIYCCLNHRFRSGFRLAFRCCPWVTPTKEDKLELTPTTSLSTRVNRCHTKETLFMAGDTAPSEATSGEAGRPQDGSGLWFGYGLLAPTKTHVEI
The format is cell membranes, CHO, Membrane. Particulars: cho.

A further series has as its target Cytochrome P450 2E1 (Homo sapiens, UniProt P05181). Particulars: bti-tn-5b1-4. Note: in other assays of this panel Not Active means under 50% inhibition at 10 µM.

Chain of Cytochrome P450 2E1 (P05181 whole entry): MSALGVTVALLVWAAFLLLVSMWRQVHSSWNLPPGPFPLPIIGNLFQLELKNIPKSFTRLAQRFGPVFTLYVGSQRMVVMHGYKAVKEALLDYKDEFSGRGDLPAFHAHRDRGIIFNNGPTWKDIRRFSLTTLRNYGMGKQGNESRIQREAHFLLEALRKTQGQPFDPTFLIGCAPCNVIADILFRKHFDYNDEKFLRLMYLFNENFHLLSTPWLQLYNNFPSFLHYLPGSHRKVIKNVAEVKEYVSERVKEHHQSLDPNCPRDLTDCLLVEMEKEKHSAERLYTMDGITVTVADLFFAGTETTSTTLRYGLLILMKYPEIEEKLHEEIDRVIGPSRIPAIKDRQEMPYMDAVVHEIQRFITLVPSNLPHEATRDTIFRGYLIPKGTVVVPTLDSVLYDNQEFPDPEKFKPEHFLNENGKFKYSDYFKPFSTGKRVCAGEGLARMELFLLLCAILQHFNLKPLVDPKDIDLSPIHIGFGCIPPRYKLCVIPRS
Chain of Histamine H2 receptor (P25021 whole entry): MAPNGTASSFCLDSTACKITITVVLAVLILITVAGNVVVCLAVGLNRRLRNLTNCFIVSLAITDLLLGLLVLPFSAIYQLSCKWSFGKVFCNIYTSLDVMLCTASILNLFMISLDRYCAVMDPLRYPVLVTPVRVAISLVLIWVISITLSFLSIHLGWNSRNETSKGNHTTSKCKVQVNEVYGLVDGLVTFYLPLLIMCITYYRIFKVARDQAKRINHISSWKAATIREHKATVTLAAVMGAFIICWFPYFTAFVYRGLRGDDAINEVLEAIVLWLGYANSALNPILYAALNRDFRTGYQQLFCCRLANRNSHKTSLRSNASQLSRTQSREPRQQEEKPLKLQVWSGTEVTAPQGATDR
Chain of Vascular endothelial growth factor receptor 1 (P17948 whole entry): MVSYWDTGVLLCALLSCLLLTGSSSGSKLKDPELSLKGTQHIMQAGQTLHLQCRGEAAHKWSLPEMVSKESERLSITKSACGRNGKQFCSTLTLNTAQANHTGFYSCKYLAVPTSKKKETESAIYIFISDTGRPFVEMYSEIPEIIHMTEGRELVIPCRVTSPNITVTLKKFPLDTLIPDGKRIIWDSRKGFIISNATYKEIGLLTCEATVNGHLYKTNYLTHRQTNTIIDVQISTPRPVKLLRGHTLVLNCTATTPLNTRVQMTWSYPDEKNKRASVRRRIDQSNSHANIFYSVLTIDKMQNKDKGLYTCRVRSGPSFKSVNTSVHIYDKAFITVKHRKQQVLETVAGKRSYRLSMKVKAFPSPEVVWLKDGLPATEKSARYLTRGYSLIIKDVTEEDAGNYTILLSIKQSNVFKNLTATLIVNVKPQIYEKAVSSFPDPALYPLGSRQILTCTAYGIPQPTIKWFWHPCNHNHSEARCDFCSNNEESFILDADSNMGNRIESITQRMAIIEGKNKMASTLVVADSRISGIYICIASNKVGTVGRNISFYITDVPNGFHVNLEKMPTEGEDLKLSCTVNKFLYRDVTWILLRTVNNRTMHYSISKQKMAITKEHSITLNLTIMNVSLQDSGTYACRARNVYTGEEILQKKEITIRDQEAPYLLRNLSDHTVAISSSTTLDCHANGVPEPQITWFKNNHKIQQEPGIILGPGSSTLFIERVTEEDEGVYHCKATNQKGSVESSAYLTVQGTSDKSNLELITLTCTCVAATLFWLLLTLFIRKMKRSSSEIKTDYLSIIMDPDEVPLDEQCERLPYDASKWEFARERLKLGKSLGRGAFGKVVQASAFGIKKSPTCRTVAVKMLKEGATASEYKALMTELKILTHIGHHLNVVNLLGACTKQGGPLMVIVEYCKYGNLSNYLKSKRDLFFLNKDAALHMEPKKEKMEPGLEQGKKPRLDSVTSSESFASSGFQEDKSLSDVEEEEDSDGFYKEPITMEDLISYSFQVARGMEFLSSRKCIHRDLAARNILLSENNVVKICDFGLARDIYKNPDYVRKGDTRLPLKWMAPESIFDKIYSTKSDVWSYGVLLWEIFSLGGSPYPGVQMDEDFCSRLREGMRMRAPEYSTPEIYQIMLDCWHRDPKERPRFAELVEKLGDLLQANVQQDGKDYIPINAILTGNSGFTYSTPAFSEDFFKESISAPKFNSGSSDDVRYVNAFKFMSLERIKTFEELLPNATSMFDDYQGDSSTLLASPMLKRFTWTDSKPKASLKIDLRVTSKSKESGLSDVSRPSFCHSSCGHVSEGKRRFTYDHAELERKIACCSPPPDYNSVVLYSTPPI
Chain of Vasopressin V1a receptor (P37288 whole entry): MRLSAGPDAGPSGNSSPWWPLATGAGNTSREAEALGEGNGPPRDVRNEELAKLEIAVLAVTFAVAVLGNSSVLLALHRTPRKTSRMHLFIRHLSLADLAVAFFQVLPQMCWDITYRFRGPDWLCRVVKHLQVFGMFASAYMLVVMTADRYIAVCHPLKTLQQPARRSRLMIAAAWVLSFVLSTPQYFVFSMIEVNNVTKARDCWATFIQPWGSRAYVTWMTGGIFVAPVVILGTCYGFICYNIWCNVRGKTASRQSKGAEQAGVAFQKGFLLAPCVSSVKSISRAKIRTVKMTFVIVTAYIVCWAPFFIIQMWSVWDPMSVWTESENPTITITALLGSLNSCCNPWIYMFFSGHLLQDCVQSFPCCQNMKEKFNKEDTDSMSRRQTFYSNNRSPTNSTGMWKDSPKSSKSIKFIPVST
Chain of Platelet-activating factor receptor (P25105 whole entry): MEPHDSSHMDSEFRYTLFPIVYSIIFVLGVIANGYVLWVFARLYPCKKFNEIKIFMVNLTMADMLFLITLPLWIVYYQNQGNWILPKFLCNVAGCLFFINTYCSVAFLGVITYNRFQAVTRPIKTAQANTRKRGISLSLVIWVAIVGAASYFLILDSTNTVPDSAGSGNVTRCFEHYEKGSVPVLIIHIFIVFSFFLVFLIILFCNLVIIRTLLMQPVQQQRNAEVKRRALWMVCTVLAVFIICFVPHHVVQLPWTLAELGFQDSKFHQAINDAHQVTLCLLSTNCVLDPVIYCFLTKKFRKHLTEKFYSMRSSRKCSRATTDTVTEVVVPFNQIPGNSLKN
Chain of C-C chemokine receptor type 5 (P51681 whole entry): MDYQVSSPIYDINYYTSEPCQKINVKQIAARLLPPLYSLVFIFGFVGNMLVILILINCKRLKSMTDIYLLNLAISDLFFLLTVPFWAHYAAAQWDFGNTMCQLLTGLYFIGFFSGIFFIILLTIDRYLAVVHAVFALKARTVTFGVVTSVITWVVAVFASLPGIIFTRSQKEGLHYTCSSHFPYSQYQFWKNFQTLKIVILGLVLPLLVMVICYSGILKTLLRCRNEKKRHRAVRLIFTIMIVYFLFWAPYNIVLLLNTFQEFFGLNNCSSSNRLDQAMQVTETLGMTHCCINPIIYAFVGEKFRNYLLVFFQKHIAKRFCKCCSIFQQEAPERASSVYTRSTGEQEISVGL
Chain of Cannabinoid receptor 1 (P21554 whole entry): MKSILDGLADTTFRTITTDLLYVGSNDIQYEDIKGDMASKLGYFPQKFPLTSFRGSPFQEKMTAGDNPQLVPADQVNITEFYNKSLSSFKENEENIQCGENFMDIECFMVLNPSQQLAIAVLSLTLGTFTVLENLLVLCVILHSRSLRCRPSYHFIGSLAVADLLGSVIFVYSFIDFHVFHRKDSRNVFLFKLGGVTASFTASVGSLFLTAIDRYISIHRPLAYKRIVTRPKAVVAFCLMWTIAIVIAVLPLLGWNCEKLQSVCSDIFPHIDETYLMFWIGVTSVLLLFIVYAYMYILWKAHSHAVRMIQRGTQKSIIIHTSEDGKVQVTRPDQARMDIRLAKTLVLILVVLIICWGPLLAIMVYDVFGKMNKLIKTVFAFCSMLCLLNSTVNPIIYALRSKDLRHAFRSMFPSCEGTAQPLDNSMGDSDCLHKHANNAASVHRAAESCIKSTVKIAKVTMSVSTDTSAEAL
Chain of Mitogen-activated protein kinase 3 (P27361 whole entry): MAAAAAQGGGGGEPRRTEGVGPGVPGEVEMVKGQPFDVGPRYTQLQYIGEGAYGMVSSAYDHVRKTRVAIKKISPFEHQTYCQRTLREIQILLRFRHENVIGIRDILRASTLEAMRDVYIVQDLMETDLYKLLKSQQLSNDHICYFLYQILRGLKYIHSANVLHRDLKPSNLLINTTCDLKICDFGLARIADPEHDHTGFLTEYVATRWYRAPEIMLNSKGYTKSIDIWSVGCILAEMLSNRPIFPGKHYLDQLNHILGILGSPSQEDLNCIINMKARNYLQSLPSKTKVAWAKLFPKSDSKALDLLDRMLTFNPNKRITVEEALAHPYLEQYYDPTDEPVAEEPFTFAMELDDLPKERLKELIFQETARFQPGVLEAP

By IC50 is commonly meant the concentration at which inhibition is half-maximal. Usually Ki stands for a dissociation constant, usually derived from enzyme kinetics or from competition with a known ligand. For `COC(=O)c1ccc(O)cc1` [METHYLPARABEN], the concentration for half-maximal inhibition (IC50) entry (in series [1]; on D(4) dopamine receptor; in [2]; in [3]; in series [4]; in series [5]) was “Not Active” each time. Further, the IC50 result (on Nitric oxide synthase 1; in series [6]; at Vasopressin V1a receptor; in series [7]; against Adenosine receptor A3 (cho-k1); against Histamine H2 receptor) was “Not Active” in each case. In addition, the IC50 result (on Cannabinoid receptor 1; in series [8]; in series [9]; in [10]; at Substance-K receptor; against Cytochrome P450 2E1) was “Not Active” in each case. The inhibitory constant (Ki) entry (in series [3]; in series [6]; in series [9]; in series [10]; at Cytochrome P450 2E1) was “Not Active” in each case.

In the case of `C[C@](N)(Cc1ccc(O)cc1)C(=O)O` [METYROSINE], the concentration for half-maximal inhibition (IC50) result (in series [1]; at D(4) dopamine receptor; in [2]; in [3]; in series [4]; in series [5]) was “Not Active” throughout. Moreover, the half-inhibitory concentration (IC50) entry (against Nitric oxide synthase 1; in series [6]; at Vasopressin V1a receptor; in [7]; against Adenosine receptor A3 (cho-k1); against Histamine H2 receptor) was “Not Active” in each case. Also, the 50% inhibitory concentration (IC50) entry (against Cannabinoid receptor 1; in series [8]; in series [9]; in series [10]; at Substance-K receptor; on Cytochrome P450 2E1) was “Not Active” in each case. In addition, the inhibition constant Ki result (in series [3]; in series [6]; in series [9]; in series [10]; at Cytochrome P450 2E1) was “Not Active” in each case.

`Clc1ccc(C(c2ccccc2Cl)C(Cl)Cl)cc1` (stereo unspecified) [MITOTANE]: the IC50 entry (in series [1]; on D(4) dopamine receptor; in [2]; in [3]; in series [4]; in [5]) was “Not Active” throughout. Besides, the 50% inhibitory concentration (IC50) entry on Nitric oxide synthase 1 is “Not Active”; in series [6], “Not Active”; at Vasopressin V1a receptor it was “Not Active”; in [7] it was “Not Active”; on Adenosine receptor A3 (read-out: IC50) it was 7.45 µM; at Histamine H2 receptor it was “Not Active”. For the same molecule, the 50% inhibitory concentration (IC50) entry (at Cannabinoid receptor 1; in series [8]; in series [9]; in [10]; against Substance-K receptor; against Cytochrome P450 2E1) was “Not Active” throughout. The inhibition constant Ki entry is “Not Active” in [3]; “Not Active” in series [6]; 4.21 µM at Adenosine receptor A3 (read-out: Ki); “Not Active” in series [9]; “Not Active” in series [10]; “Not Active” on Cytochrome P450 2E1.

Consider `COc1c(C)c2c(c(O)c1C/C=C(\C)CCC(=O)OCCN1CCOCC1)C(=O)OC2` [MYCOPHENOLATE MOFETIL], for which the IC50 result (in series [1]; on D(4) dopamine receptor; in [2]; in series [3]; in [4]; in series [5]) was “Not Active” in each case. Also, the concentration for half-maximal inhibition (IC50) entry (against Nitric oxide synthase 1; in series [6]; against Vasopressin V1a receptor; in series [7]; against Adenosine receptor A3 (cho-k1); at Histamine H2 receptor) was “Not Active” in each case. Also, the half-maximal inhibitory concentration (IC50) entry (on Cannabinoid receptor 1; in [8]; in [9]; in [10]; on Substance-K receptor; against Cytochrome P450 2E1) was “Not Active” throughout. Also, the inhibition constant (Ki) entry (in [3]; in series [6]; in series [9]; in [10]; on Cytochrome P450 2E1) was “Not Active” in each case.

As to `NNc1ccccc1` [PHENYLHYDRAZINE], the half-maximal inhibitory concentration (IC50) result (in [1]; at D(4) dopamine receptor; in series [2]; in series [3]; in [4]; in series [5]) was “Not Active” each time. The IC50 entry (against Nitric oxide synthase 1; in series [6]; against Vasopressin V1a receptor; in [7]; against Adenosine receptor A3 (cho-k1); against Histamine H2 receptor) was “Not Active” each time. Also, the concentration for half-maximal inhibition (IC50) entry (on Cannabinoid receptor 1; in [8]; in [9]; in series [10]; on Substance-K receptor; at Cytochrome P450 2E1) was “Not Active” each time. The inhibition constant (Ki) result (in series [3]; in series [6]; in series [9]; in [10]; on Cytochrome P450 2E1) was “Not Active” each time.
